Values quoted from earlier work as cited in patent US11325892B2, “Compounds and methods for treating cancer” (Mayo Foundation for Medical Education and Research, priority 2014, dated 2022).

Target: T1, SCD1 (Homo sapiens, UniProt O00767)
T1 sequence (O00767 1-359): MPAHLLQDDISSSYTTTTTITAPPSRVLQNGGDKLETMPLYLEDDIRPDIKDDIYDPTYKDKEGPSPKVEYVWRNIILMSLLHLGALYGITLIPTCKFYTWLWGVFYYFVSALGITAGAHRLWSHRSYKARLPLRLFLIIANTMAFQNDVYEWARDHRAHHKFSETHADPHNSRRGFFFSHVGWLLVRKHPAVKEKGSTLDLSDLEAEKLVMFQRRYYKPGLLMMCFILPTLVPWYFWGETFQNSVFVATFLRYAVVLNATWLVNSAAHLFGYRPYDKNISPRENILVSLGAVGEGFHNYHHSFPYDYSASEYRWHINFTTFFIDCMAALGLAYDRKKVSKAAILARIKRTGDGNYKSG
Settings: known inhibitors; cited from earlier work

CNC(=O)c1cccc(NC(=O)N2CCC(Oc3ccccc3Cl)CC2)c1 [A939572]
IC50: 37 nM
